# Reference: US20090253634A1, “Methods and Compositions for the Treatment of Gastrointestinal Disorders” (MICROBIA, INC., priority 2005, published 2009)
# Bridge positions count the residues as written; N and C are the ends. Peptide text beside a SMILES is read from it.
# What was measured:
# [1] = test system: visceromotor response to colorectal distension; assay: water avoidance stress-induced hyperalgesia model and basal visceral nociception; type: in vivo, Wistar rats
# Protocol: The effect of SEQ ID NO:3 on basal visceral nociception in a model of water avoidance stress-induced visceral hyperalgesia in adult male Wistar rats was tested. The stress involved confining rats to a platform surrounded by water for a period of 1 hour and then measuring their visceromotor response to colonic distension using electromyography (EMG).
# Electrode leads were then tunneled subcutaneously and externalized laterally for future access. Following surgery, rats were housed in pairs and allowed to recover for at least 7 days. On the day of the experiment, animals were lightly anesthetized with halothane, and a lubricated latex balloon (6 cm) was inserted intra-anally into the descending colon. Animals were allowed to recover for 30 minutes, and colorectal distension (CRD) was initiated. The CRD procedure consisted of graded intensities of phasic CRD (10, 20, 40, 60 mmHg; 20 s duration; 4 min inter-stimulus interval). Visceromotor response (VMR) to CRD was quantified by measuring EMG activity. […] Animals were allowed 1 hour recovery and then SEQ ID NO:3 or vehicle was orally administered. At 1 hour following administration of SEQ ID NO:3 or vehicle CRD was repeated. […] The mean value (+/−SEM) of in vehicle and SEQ ID NO:3 treated groups (n=7 for each group) is graphically depicted in FIG. 7e.
# To determine the effect of SEQ ID NO:3 in a model of water avoidance stress-induced visceral hyperalgesia, a baseline CRD was recorded and then the animals were subjected to 1 hour of water avoidance stress. For water avoidance stress, the test apparatus consisted of a Plexiglas tank with a block affixed to the center of the floor. The tank was filled with fresh room temperature water (25° C.) to within 1 cm of the top of the block. The animals were placed on the block for a period of 1 h. The sham water avoidance stress consisted in placing the rats on the same platform in a waterless container. A second CRD was performed at 24 hours post water avoidance stress. Following the second CRD, animals were allowed 1 hour recovery and then SEQ ID NO:3 or vehicle was orally administered. […]
# intestinal secretion = assay: suckling mouse model of intestinal secretion (SuMi assay); type: in vivo, suckling mice; conditions: dose response; wild-type ST purchased from TDT; FIG. 5a, 5b
# Protocol: In this model a test compound is administered to suckling mice that are between 7 and 9 days old. After the mice are sacrificed, the gastrointestinal tract from the stomach to the cecum is dissected (“guts”). The remains (“carcass”) as well as the guts are weighed and the ratio of guts to carcass weight is calculated. If the ratio is above 0.09, one can conclude that the test compound increases intestinal secretion. […] The effect of Zelnorm® was also studied.
# bowel habits = assay: single oral dose study of bowel habits in humans; type: in vivo
# Protocol: Single doses of 30, 100, 300, 1000 or 3000 μg of chemically synthesized SEQ ID NO:3 were given to 30 healthy males and postmenopausal females. At each dose level (100 μg was done twice) SEQ ID NO:3 or placebo (vehicle) was administered orally in 5.0 mL 50 mM phosphate buffer (pH 6.0) plus 3×20 mL water rinses and 175 mL water after at least a 10-hour fast. In each dosing group, subjects were randomized to receive either placebo (1 subject) or SEQ ID NO:3 (3-4 subjects). Bowel habits (including Bristol Stool Form Scale score (BSFS; FIG. 14a), stool frequency, and stool weight) were evaluated for each collected bowel movement 48 hours prior to dose and up to approximately 48 hours postdose.
# [2] = test system: abdominal response to colorectal distension; assay: TNBS visceral hypersensitivity rat model (colorectal distension, EMG); type: in vivo, Wistar rats; conditions: 0.3 μg/kg and 3 μg/kg; given one hour before CRD
# Protocol: Male Wistar rats (220-250 g) were premedicated with 0.5 mg/kg of acepromazine injected intraperitoneally (IP) and anesthetized by intramuscular administration of 100 mg/kg of ketamine. Pairs of nichrome wire electrodes (60 cm in length and 80 μm in diameter) were implanted in the striated muscle of the abdomen, 2 cm laterally from the white line. The free ends of electrodes were exteriorized on the back of the neck and protected by a plastic tube attached to the skin. Electromyographic (EMG) recordings were started 5 days after surgery. Electrical activity of abdominal striated muscle was recorded with an electroencephalograph machine (Mini VIII, Alvar, Paris, France) using a short time constant (0.03 sec.) to remove low-frequency signals (<3 Hz).
# Ten days post surgical implantation, trinitrobenzenesulphonic acid ([…]) was administered to induce rectal inflammation. TNBS (80 mg kg^−1 in 0.3 ml 50% ethanol) was administered intrarectally through a silicone rubber catheter introduced at 3 cm from the anus under light diethyl-ether anesthesia, as described (Morteau et al. 1994 Dig Dis Sci 39:1239). […] Evaluation of rectal sensitivity, as measured by EMG, was performed before (1-2 days) and 3 days following rectal instillation of TNBS.
# The number of spike bursts that corresponds to abdominal contractions was determined per 5 min periods. […]
# chymotrypsin = target: T1, chymotrypsin (Bos taurus, UniProt P00766); assay: in vitro proteolytic stability: chymotrypsin; type: in vitro ADME, bovine; conditions: 37° C., up to 24 h
# T1 construct: purchased Sigma-Aldrich C6423; host or cells: bovine pancreas
# Protocol: (§1) All samples were analyzed by LC/MS
# Samples were returned to the 37° C. water bath.
# pepsin = target: T2, pepsin (Sus scrofa, UniProt P00791); assay: in vitro proteolytic stability: pepsin; type: in vitro ADME, porcine; conditions: pH 2.0, 37° C., up to 3 h
# T2 construct: purchased Sigma-Aldrich P68871; host or cells: porcine gastric mucosa
# Protocol: as §1
# T2 sequence (P00791 60-385): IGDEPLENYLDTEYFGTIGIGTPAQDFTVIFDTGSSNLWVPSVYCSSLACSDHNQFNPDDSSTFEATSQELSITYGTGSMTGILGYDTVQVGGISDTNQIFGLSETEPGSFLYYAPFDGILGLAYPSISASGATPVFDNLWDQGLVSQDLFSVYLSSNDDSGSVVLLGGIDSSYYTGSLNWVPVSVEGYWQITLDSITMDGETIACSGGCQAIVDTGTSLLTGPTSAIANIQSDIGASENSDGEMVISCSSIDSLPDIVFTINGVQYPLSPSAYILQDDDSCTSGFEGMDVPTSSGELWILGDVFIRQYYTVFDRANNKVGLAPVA
compound,measurement,setting,value
"C[C@@H]1NC(=O)[C@@H]2CCCN2C(=O)[C@H](CC(N)=O)NC(=O)[C@@H]2CSSC[C@H](N)C(=O)N[C@H]3CSSC[C@H](NC1=O)C(=O)N[C@@H]([C@@H](C)O)C(=O)NCC(=O)N[C@H](C(=O)N[C@@H](Cc1ccc(O)cc1)C(=O)O)CSSC[C@H](NC(=O)[C@H](Cc1ccc(O)cc1)NC(=O)[C@H](CCC(=O)O)NC3=O)C(=O)N2 [SEQ ID NO:3] (H-CCEYCCNPACTGCY-OH; disulfide 1-6, 2-10, 5-13; N-terminus and C-terminus assumed)",basal visceral nociception,[1]; oral 3 μg/kg,had no effects
same,visceromotor response to CRD 24 hours after water avoidance stress,[1]; oral 3 μg/kg,exhibited anti-hyperalgesic properties
same,basal visceral nociception versus vehicle,[1]; oral 30 μg/kg,increased basal visceral nociception
same,intestinal secretion (guts to carcass weight ratio),intestinal secretion,increase intestinal secretion
same,percent of subjects with a 2-point or greater increase in BSFS score,"bowel habits; 1000 μg dose group, mean pre-dose compared to peak 48 hours post-dose",highest percent of subjects
same,"BSFS post-dose scores, relation to dose",bowel habits; single oral dose 30-3000 μg,Higher BSFS post-dose scores correlated with a higher dose
same,maximum BSFS (Bristol Stool Form Scale) score,"bowel habits; single oral dose 30-3000 μg, healthy males and postmenopausal females",increase in maximum BSFS score
same,abdominal response to colorectal distension after TNBS,[2],Significant decreases in abdominal response
same,Cleavage of SEQ ID NO: 3 by proteolytic substance,chymotrypsin,not detectable
same,Cleavage of SEQ ID NO: 3 by proteolytic substance,pepsin,not detectable
